Values after ≈ are worked out from the molar mass of the structure shown.
Legend:
Solubility in water = format: physicochemical; settings: in Wasser, freie Base, read-out: Löslichkeit
Experimental: Prasugrel wird als Plättchenaggregationshemmer oral verabreicht. Problematisch hierbei ist, dass es sich bei Prasugrel um einen schwer löslichen Wirkstoff handelt. Die freie Base des Wirkstoffs weist eine Löslichkeit von 57 µg/ml in Wasser auf, aber auch die Salze zeigen nur eine begrenzte Löslichkeit.

pH-dependent degradation = format: physicochemical; settings: pH-Werte < 3; nach bereits 2 Stunden; read-out: Abbau
From the text: Darüber hinaus weist Prasugrel auch einen stark pH-abhängigen Abbau auf. Bei pH-Werten von < 3 ist ein Abbau von mehr als 1 % nach bereits 2 Stunden zu beobachten. Dies schränkt die möglichen Hilfsstoffe bei der Herstellung pharmazeutischer Formulierungen ein.

CC(=O)Oc1cc2c(s1)CCN(C(C(=O)C1CC1)c1ccccc1F)C2 (centres unmarked) [Prasugrel, 2-Acetoxy-5-(a-cyclopropylcarbonyl-2-fluorbenzyl)-4,5,6,7-tetrahydrothieno[3,2-c]pyridin]
solubility (Solubility in water): 57 µg/mL (≈ 153 µM)
degraded at 2 h (pH-dependent degradation): > 1%

Reference: patent EP2377520A1, “Pharmaceutical compound of prasugrel” (Ratiopharm GmbH, priority 2010, dated 2011)
